EP0675109A1, “N-SUBSTITUTED INDOLE DERIVATIVE” (TAISHO PHARMACEUTICAL CO. LTD, priority 1992, dated 1994)
pIC50: −log10 of the molar value.

Key:
[1] = tested on: smooth muscle of the beagle prostate gland; assay: Urination disorder-relieving activity test (phenylephrine-induced contraction of isolated prostate smooth muscle, Magnus' method); format: cell-based, dog; conditions: specimen 10⁻⁸ to 10⁻⁶ M for 15 minutes, against cumulative phenylephrine, calculated from two dose/reaction curves, read-out: IC₅₀
Description: The urination disorder-relieving activity test was performed in accordance with the method described in FEDERATION PROCEEDINGS, 45 (11), (1986). Under pentobarbital anesthesia, the prostate gland of a male dog (weighing 7 to 10 kg, beagle, each group having 3 animals) was taken out. Then a preparation of the smooth muscle of the beagle prostate gland thus taken out was prepared in a conventional manner and the isometric tensile strength was measured by Magnus' method. After incubating for 60 to 90 minutes, phenylephrine (10⁻⁷ to 10⁻⁴ M) was accumulatively administered to give a control dose/reaction curve. After washing away the phenylephrine, the preparation was treated with a specimen (10⁻⁸ to 10⁻⁶ M) for 15 minutes. In the presence of the specimen, phenylephrine (10⁻⁷ to 10⁻³ M) was accumulatively administered again and a dose/reaction curve was obtained in the same manner. Based on these two dose/reaction curves, the IC₅₀ of each specimen was calculated.

[2] = tested on: dog (beagle); assay: Depressor activity test (telemetry of blood pressure and cardiac rate in conscious dogs after oral administration); format: in vivo
Description: The depressor activity test was performed in accordance with the method described in Journal of Physiology, 448, 307 - 320 (1992).
Under pentobarbital anesthesia, a catheter for detecting and transmitting the blood pressure was embedded in a branch of the femoral artery of a dog (weighing 10 kg, beagle, each group having 4 animals). When the animal restored from the postoperative aggression, a powder of the compound 1 encapsulated in a cellulose capsule (3 mg/kg) was orally administered to the animal, which had been fasted, without anesthesia or restriction.
Via the catheter embedded in the body of the beagle, the cardiac rate was measured from the blood pressure and the blood pressure pulse wave in accordance with the telemetry method. The blood pressure lowering effect attained the maximum level 30 minutes after the administration and the blood pressure was lowered by about 12 mmHg. This depressor activity persisted even 24 hours after the administration.

[3] = target: α1-adrenergic receptor; assay: α1-Adrenergic receptor binding test ([³H] prazosin displacement, rat brain membrane preparation); conditions: 0.6 nM [³H] prazosin, 25 °C for 30 minutes, read-out: IC₅₀
Description: The α1-adrenergic receptor binding reaction was performed in accordance with the method of Greengrass and Bremner [Eur. J. Pharmacol., 55, 323 (1979)].
A rat was decapitated, and the brain was taken out and homogenized with 30 volumes of 50 Mm Tris hydrochloride (Ph 7.4). The homogenate was centrifuged at 1,000 x g for 5 minutes and the supernatant was further centrifuged at 48,000 x g for 20 minutes. The precipitate thus obtained was suspended in 50 mM Tris hydrochloride (pH 7.4) and recentrifuged at 48,000 x g for 20 minutes. The obtained precipitate was suspended in 50 mM Tris hydrochloride (pH 7.4) in such a manner as to give a concentration of 1.0 mg/ml protein. Thus an α1-adrenergic receptor preparation was obtained.
To 1.0 ml portions of this receptor preparation were added 0.6 nM [³H] prazosin and specimens at various concentrations, and the mixture was allowed to react at 25 °C for 30 minutes.
After the completion of the reaction, each reaction mixture was subjected to a rapid filtration through a glass filter (Whatman GF/B) and the filter was washed with 3 ml portions of 50 mM tris hydrochloride (pH 7.4) thrice. The radioactivity on the filter was measured with a liquid scintillation counter.
The difference between the radioactivity in the absence of any specimen and the radioactivity obtained in the presence of 10 µM of prazosin was referred to as the specific binding of the control. The ratio of the radioactivity obtained at the time of adding each specimen to the control radioactivity was determined and plotted against the specimen concentration. Then the fifty percent inhibitory concentration (IC₅₀) of each specimen was calculated by the curve fitting method with the use of a computer.

[4] = 3 mg/kg orally, time after the administration

| SMILES | potency estimated from few doses [1] [nM] | pIC50 [3] | also measured |
| --- | --- | --- | --- |
| CCC(=O)Cn1cc(CCN2CCN(c3ccccc3OC)CC2)c2ccccc21 [compound 1, 3-[2-(4-(2-methoxyphenyl)piperadinyl)ethyl]-1-(2-oxobutyl)indole] | 1.4 | 8.11 | cardiac rate ([2]; 3 mg/kg orally): somewhat lowered; blood pressure was lowered (maximum level) ([2]; 3 mg/kg orally (powder in cellulose capsule), fasted, without anesthesia, 30 minutes after the administration): about 12 mmHg; persistence of depressor activity [2, 4]: ≥ 24 h; time at which the blood pressure lowering effect attained the maximum level [2, 4]: 30 min |
| CCC(=O)Cn1cc(CCN2CCN(c3cccc(C)c3C)CC2)c2ccccc21 [compound 4] | – | 8.41 | – |
| CCC(=O)Cn1cc(CCN2CCN(c3ccc(F)cc3)CC2)c2ccccc21 [compound 8] | – | 8.29 | – |
| CCCC(=O)Cn1cc(CCN2CCN(c3ccccc3OC)CC2)c2ccccc21 [compound 14] | – | 9.10 | – |
| COc1ccccc1N1CCN(CCc2cn(CC(=O)C(C)C)c3ccccc23)CC1 [compound 15] | – | 9.17 | – |
| COc1ccccc1N1CCN(CCCNc2cc(=O)n(C)c(=O)n2C)CC1 [urapidil, reference compound] | 53.7 | 6.13 | – |
